The values below come from patent US8835476B2, “Synthesis of novel antimicrobials” (priority 2005, dated 2014).

In experiment [1] the test system is LPS synthesis in E. coli strain D22. Kind of experiment: In vivo LPS synthesis: [3H]galactose incorporation into acid-precipitable material. It is filed as cell-based. Here is the method: LpxA catalyzes the first step in the synthesis of lipid A (the hydrophobic anchor of LPS), which is essential for the growth and pathogenesis of many gram-negative bacteria. The inhibition of LpxA activity would therefore result in decreased synthesis of LPS. To measure the synthesis of LPS in vivo, the incorporation of radiolabelled galactose into acid-precipitable material was determined. The E. coli strain used for these studies was D22 (obtained from the E. coli Genetic Stock Center), which contains a mutation in the LpxC gene (lpxC101; Normark et al., 1969, J Bacteriol 97, 1334). Strains harbouring this mutation have an increased susceptibility to antibiotics, in addition to producing approximately 30% less LPS (Grundstrom et al., 1980, J Bacteriol 144, 884.). Bacteria were grown in Luria broth to early-log phase, at which point, 500 μl was transferred to a culture tube containing 1 μl of [^3H]galactose (final concentration, 0.2 mM, 20 μCi/μmol) and mixed. Cultures were incubated at 30° C. for 75 minutes with shaking at 220 rpm. Incorporation was terminated by adding 400 μl of labelled culture to 44.4 μl of 100% trichloroacetic acid (TCA, 10% final concentration) in a 1.5 ml microcentrifuge tube. Tubes were vortexed, incubated on ice for 30 minutes, then centrifuged at 14 000 rpm for 5 minutes at room temperature. The pellet was rinsed twice with 1 ml of ice-cold 10% TCA, resuspended in 50 μl of formic acid, and transferred to a scintillation vial for counting.
Compounds to be tested were dissolved in DMSO and added to the bacterial culture prior to labelling with galactose, and LPS synthesis was determined as described previously. The final concentration of DMSO (1%, v/v) had minimal effect on LPS synthesis.

The next experiment concerns the target T1, recombinant E. coli LpxA (Escherichia coli, UniProt P0A722).
T1 construct: 6xHis (C); made in house; host or cells: E. coli BL21 (pET23b)
In words: LpxA assay: acyl-UDP-GlcNAc formation from UDP-[3H]GlcNAc, TLC. It is filed as biochemical. Conditions: 5 mM compound; FIG. 8. The source says:
The lpxA gene was amplified from an E. coli genomic library and inserted into a pET23b vector using standard recombinant DNA methodology. The 5′ oligonucleotide for amplification of the LpxA open reading frame was 5′-[…]-3′ (SEQ ID NO. 1) and contains a BamHI restriction enzyme site upstream of the LpxA ATG start codon and the 3′ oligonucleotide was 5′-[…]-3′ (SEQ ID NO. 2) and contains a XhoI restriction enzyme site downstream of the final codon of the LpxA open reading frame. Primers were custom synthesized. The primers were designed such that digestion of the amplification product would result in addition of a C-terminal 6×-His tag in frame with the LpxA open reading frame. Specifically, E. coli genomic DNA was isolated and an amplification reaction was carried out as follows: 33 μl water, 5 μl 10× reaction buffer, 1.5 μl of 50 mM magnesium sulfate, 3 μl of 10 mM dNTPs, 3 μl of a 50 μM solution of the 5′ LpxA primer, 3 μl of a 50 μM solution of the 3′ LpxA primer, 0.5 μl of E. coli genomic DNA solution, and 1 μl of polymerase. The reaction conditions were as follows: 94° C. for 2 minutes; followed by 30 cycles of 94° C. for 30 seconds, 50° C. for 30 seconds, 68° C. for 1.5 minutes, followed by an extension at 68° C. for 7 minutes. The resulting LpxA product was separated from other DNA on a 0.8% agarose gel and isolated from the gel. The LpxA open reading frame was cloned into a topoisomerase I-activated vector and transformed into E. coli. […] The newly synthesized plasmid containing the BamHI- and XhoI-flanked LpxA open reading frame and plasmid pET23a were digested with BamHI and XhoI at 37° C. for 2 hours, DNA was separated by agarose gel electrophoresis, isolated from the gel, and ligated. Ligation reactions were transformed into chemically competent E. coli and plasmid DNA was isolated. Restriction mapping was performed to determine which plasmids contained the LpxA open reading frame. To remove the T7 epitope coding sequence from the 5′end of the LpxA open reading frame, the pET23a plasmid containing the LpxA open reading frame was digested with the restriction enzymes BamHI and XhoI and a pET23b plasmid was digested with BglII and XhoI, DNA was separated by agarose gel electrophoresis, isolated from the gel, and ligated. Ligation reactions were transformed into chemically competent E. coli and plasmid DNA was isolated. Restriction mapping was performed to assess plasmids containing the LpxA open reading frame.
A 5 ml culture of E. Coli BL21 cells expressing the LpxA-6×His plasmid was grown overnight at 37° C. in LB medium containing 50 μg/ml ampicillin and 34 μg/ml chloramphenicol, then subcultured into 500 ml of the same medium and grown at 37° C. until A600=0.6. LpxA expression was induced by addition of 0.5 mM IPTG for three hours. The cells were centrifuged at 7 000×g for 10 minutes at 4° C. and lysed using a mild, nonionic detergent. The soluble fraction containing LpxA was added to 1 ml of nickel affinity resin in a 15 ml Falcon tube; the resin was washed extensively with extraction/wash buffer (50 mM Na-phosphate (pH 7.0) and 300 mM NaCl) prior to use. This mixture was incubated on a rotating platform at low speed for 20 minutes at room temperature. The resin was centrifuged at 1000 rpm in a bench top centrifuge for 2 min, washed twice (10 min each) with 10 ml of extraction/wash buffer, resuspended in 10 ml of extraction/wash buffer, and transferred to a 10 ml polypropylene disposable protein purification column. The column was eluted with 5 ml of 50 mM Na-phosphate (pH 7.0) containing 300 mM NaCl and 150 mM imidazole, collected in 1 ml fractions. The eluate was analysed by SDS-PAGE and was visualised using a protein stain (FIG. 7 inset).
Recombinant Vibrio harveyi acyl carrier protein was prepared from a GST fusion protein as described previously (Flaman et al., 2001). […]

For orientation: inhibition means the relative decrease from the control value, in per cent.

Structures are written as SMILES.

T1 sequence (P0A722 whole entry): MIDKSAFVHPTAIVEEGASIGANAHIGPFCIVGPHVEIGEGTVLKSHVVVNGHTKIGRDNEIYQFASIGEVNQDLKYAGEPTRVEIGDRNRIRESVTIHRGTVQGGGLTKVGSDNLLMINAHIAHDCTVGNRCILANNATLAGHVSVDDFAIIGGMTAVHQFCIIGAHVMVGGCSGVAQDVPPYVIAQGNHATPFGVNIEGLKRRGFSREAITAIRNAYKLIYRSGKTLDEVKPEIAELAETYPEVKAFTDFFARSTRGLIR

Consider `COc1ccc(-c2cc(-c3nnn[nH]3)c(-c3ccc(OC)cc3)s2)cc1` [DNM-131D, 5-(2,5-Bis(4-methoxyphenyl)thiophen-3-yl)-1H-tetrazole], for which the “decrease of LPS synthesis” value in experiment [1] (0.1 mM, FIG. 10B) is reported as approximately 50%. Besides, at recombinant E. coli LpxA, the inhibition at 5000 µM was more than 80%.

Take `CCOC(=O)c1cccc(-c2cc(-c3nnn[nH]3)c(-c3cccc(C(=O)OCC)c3)s2)c1` [DNM-131I, 5-(2,5-Bis(3-(ethoxylcarbonyl)phenyl)thiophen-3-yl)-1H-tetrazole]: the “decrease of LPS synthesis” value in experiment [1] (1 mM, FIG. 10A) is on record as approximately 80%. Further, the inhibition at 5000 µM at recombinant E. coli LpxA is more than 80%.
